According to publication PMC8740820 (Toxicology and applied pharmacology, 2014):
“Also recorded” adds a separate entry of the source. Where two headings read alike, the source gives them in different places. One block for each molecule: values may come before it.

Experiments:
zfERβ1 [1] = target: T1, zfERβ1 (Danio rerio, UniProt Q5PR29); conditions: for agonistic activity on zfERβ1 (in words): HELN-zfERβ1; for EC50: read-out: zfERβ1 EC50
zfERβ2 [2] = target: T2, zfERβ2 (Danio rerio, UniProt Q7ZU32); conditions: for agonistic activity on zfERβ2 (in words): HELN-zfERβ2; for EC50: read-out: zfERβ2 EC50
zfERα [3] = target: T3, zfERα (Danio rerio, UniProt P57717); test: HELN-zfERα transcriptional inhibition; type: cell-based, zebrafish
T3 sequence (P57717 1-569): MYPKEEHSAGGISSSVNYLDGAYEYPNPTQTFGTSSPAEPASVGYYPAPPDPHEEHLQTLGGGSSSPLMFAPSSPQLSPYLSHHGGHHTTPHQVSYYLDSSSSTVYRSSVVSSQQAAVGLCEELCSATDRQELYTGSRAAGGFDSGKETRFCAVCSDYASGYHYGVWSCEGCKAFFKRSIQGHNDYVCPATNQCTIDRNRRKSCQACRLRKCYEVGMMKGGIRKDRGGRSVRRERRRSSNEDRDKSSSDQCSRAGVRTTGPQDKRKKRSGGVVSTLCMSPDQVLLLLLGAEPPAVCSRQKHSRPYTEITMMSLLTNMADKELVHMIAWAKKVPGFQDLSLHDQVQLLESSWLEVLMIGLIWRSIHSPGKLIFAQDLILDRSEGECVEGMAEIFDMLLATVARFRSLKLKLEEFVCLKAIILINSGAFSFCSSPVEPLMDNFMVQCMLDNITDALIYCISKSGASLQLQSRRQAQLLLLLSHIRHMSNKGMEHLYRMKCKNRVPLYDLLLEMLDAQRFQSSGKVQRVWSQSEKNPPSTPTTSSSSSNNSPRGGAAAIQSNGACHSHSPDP

zfERβ1 [4] = target: T1, zfERβ1; type: cell-based, zebrafish; conditions: HELN-zfERβ1
zfERβ2 [5] = target: T2, zfERβ2; test: HELN-zfERβ2 transcriptional inhibition; type: cell-based, zebrafish
zfERα [6] = target: T3, zfERα; test: HELN-zfERα luciferase transactivation assay; conditions: for potency profile among zfER subtypes: Supplementary Fig. 2A and data not shown
hERα = target: T4, hERα (Homo sapiens, UniProt P03372); conditions: HELN-hERα compared to hERβ, ref Escande et al., 2006, cited from earlier work
T4 sequence (P03372 1-595): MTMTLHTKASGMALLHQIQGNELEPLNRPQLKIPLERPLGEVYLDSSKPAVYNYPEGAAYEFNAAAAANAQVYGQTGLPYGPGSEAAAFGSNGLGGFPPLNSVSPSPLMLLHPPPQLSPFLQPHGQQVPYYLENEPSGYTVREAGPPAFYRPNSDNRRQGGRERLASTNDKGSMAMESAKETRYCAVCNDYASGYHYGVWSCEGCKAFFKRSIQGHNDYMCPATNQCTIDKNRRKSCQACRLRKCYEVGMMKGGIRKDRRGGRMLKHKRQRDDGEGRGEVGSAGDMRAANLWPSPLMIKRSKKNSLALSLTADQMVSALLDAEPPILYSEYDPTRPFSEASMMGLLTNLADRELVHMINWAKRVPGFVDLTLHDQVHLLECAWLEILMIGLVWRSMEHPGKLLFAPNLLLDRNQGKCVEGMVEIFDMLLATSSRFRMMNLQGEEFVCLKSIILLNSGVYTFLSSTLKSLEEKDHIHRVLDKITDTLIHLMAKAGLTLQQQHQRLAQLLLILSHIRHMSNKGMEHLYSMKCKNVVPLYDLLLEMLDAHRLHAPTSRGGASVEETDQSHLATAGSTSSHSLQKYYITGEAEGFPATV

zfERα [7] = target: T3, zfERα; conditions: zebrafish liver-derived cell lines; ref Cosnefroy et al. (2012); cited from earlier work
zfERβ1 [8] = target: T1, zfERβ1; test: cell-based; conditions: zfERβ1 EC50, HELN-zfERβ1, 28 °C
zfERβ2 [9] = target: T2, zfERβ2; test: cell-based; conditions: zfERβ2 EC50, HELN-zfERβ2, 28 °C
5×ERE:GFP reporter = conditions: 5×ERE:GFP zebrafish larvae, cited from earlier work; for tissue of GFP expression: ref Gorelik et al., 2014
hERβ = hERβ (Homo sapiens, UniProt Q92731); conditions: ref Escande et al., 2006; cited from earlier work
Chain of hERβ (Q92731 whole entry): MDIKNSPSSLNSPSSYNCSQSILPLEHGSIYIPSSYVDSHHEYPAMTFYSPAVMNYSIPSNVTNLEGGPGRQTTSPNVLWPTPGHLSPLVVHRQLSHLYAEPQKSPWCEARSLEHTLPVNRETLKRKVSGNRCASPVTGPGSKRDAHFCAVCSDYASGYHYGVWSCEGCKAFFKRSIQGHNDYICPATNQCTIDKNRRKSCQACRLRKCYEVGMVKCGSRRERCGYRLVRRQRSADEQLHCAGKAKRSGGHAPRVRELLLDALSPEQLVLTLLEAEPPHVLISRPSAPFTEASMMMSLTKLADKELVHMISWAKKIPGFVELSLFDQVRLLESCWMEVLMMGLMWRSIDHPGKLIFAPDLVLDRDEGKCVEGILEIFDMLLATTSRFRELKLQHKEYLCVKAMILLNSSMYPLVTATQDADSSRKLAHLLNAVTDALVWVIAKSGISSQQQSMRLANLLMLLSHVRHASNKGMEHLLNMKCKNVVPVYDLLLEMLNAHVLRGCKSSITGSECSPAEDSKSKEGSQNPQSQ

SMILES: CC(C)(C)CC(C)(C)c1ccc(O)cc1 [4-Tert-octylphenol, 4-tert-octylphenol]
- agonistic activity on zfERβ1 (in words) (zfERβ1 [1]): full agonists
- agonistic activity on zfERβ2 (in words) (zfERβ2 [2]): partial agonists

- antagonistic activity on zfERα (in words) (zfERα [3]): full antagonistic activity
- antagonistic activity on zfERβ1 (in words) (zfERβ1 [4]): full antagonistic activity
- antagonistic activity on zfERβ2 (in words) (zfERβ2 [5]): full antagonistic activity
- agonistic activity on zfERβ1 (in words) (zfERβ1 [1]): No agonistic activity
- agonistic activity on zfERβ2 (in words) (zfERβ2 [2]): No agonistic activity
- agonistic activity on zfERα (in words) (zfERα [6]): No agonistic activity
SMILES: CCC(=C(c1ccc(O)cc1)c1ccc(OCCN(C)C)cc1)c1ccccc1 [4OH-tamoxifen, 1-[p-dimethylaminoethoxyphenyl]-1-(4-hydroxyphenyl)-2-phenyl-1-butene]

SMILES: C[C@]12CC[C@@H]3c4ccc(O)cc4CC[C@H]3[C@@H]1C[C@H]1OC(=O)C[C@]12O [16α-LE2, 3,17-Dihydroxy-19-nor-17α-pregna-1,3,5(10)-triene-21,16α-lactone]
- fold potency/selectivity in reporter gene activation hERα over hERβ (hERα): over 1000 fold
- fold potency/selectivity in reporter gene activation hERα over hERβ (hERα; listed as 16α-E2): 1000 fold
- fold higher potency zfERα compared to zfERβ1 (zfERα [6]; transactivation, 28 °C): approximately 429 fold
- fold higher potency zfERα compared to zfERβ2 (zfERα [6]; transactivation, 28 °C): ~115 fold

SMILES: O=C(c1ccc(O)cc1O)c1ccc(O)cc1O [BP2, 2,2′,4,4′-tetrahydroxybenzophenone]
- agonistic activity on zfERβ1 (in words) (zfERβ1 [1]): full agonist
- agonistic activity on zfERβ2 (in words) (zfERβ2 [2]): full agonist
- fold higher potency zfERβ2 compared to zfERβ1 (zfERβ2 [2]; transactivation, 28 °C): 3 fold
- fold higher potency zfERα compared to zfERβ1 (zfERα [7]): ~2 fold
- fold higher potency zfERα compared to zfERβ2 (zfERα [7]): approximately 1.36 fold
- EC50 (zfERβ1 [8]): ~0.803 µM
- EC50 (zfERβ2 [9]): ~233 nM
- agonistic activity on zfERα (in words) (zfERα [6]; HELN-zfERα): full agonist
- fold higher potency zfERα compared to zfERβ1 (zfERα [6]; transactivation, 28 °C): 3 fold
- EC50 (zfERα [6]; zfERα EC50, HELN-zfERα, 28 °C): ~251 nM

- agonistic activity on zfERβ1 (in words) (zfERβ1 [1]): partial agonist
- agonistic activity on zfERβ2 (in words) (zfERβ2 [2]): partial agonist
- EC50 (zfERβ1 [8]; text value in μM): 1.89 µM
- agonistic activity on zfERα (in words) (zfERα [6]; HELN-zfERα): partial agonist
SMILES: CC(C)(c1ccc(O)cc1)c1ccc(O)cc1 [BPA, bisphenol A]
- tissue of GFP expression (5×ERE:GFP reporter): preferentially induced GFP expression in the heart valves

SMILES: N#CC(Cc1ccc(O)cc1)c1ccc(O)cc1 (stereo not shown) [DPN, 2,3-bis(4-hydroxyphenyl)-propionitrile]
- tissue of GFP expression (5×ERE:GFP reporter): preferentially induced GFP expression in the heart valves

SMILES: C[C@]12CC[C@@H]3c4ccc(O)cc4CC[C@H]3[C@@H]1CCC2=O [E1, 1,3,5[10]-estratriene-3-ol-17-one]
- EC50 (zfERβ2 [9]): 12.1 nM

SMILES: C#C[C@]1(O)CC[C@H]2[C@@H]3CCc4cc(O)ccc4[C@H]3CC[C@@]21C [EE2, 17α-ethynyl-1,3,5[10]-estratriene-3,17β-diol]
- EC50 (zfERβ1 [1]; HELN-zfERβ1, 37 °C): 0.673 nM
- EC50 (zfERβ2 [2]; HELN-zfERβ2, 28 °C): ~0.031 nM
- EC50 (zfERβ2 [2]; HELN-zfERβ2, 37 °C): ~0.197 nM
- EC50 (zfERα [6]; read-out: zfERα EC50, HELN-zfERα, 31 °C): 0.127 nM
- EC50 (zfERα [6]; read-out: zfERα EC50, HELN-zfERα, 34 °C): 0.19 nM
- EC50 (zfERα [6]; read-out: zfERα EC50, HELN-zfERα, 37 °C): 0.947 nM

SMILES: O=c1c(-c2ccc(O)cc2)coc2cc(O)cc(O)c12 [Genistein, 40,5,7-trihydroxyisoflavone]
- tissue of GFP expression (5×ERE:GFP reporter): preferentially induced GFP expression in the heart valves

SMILES: C[C@]12CC[C@@H]3c4ccc(O)cc4C[C@@H](CCCCCCCCC[S+]([O-])CCCC(F)(F)C(F)(F)F)[C@H]3[C@@H]1CC[C@@H]2O (stereo partly drawn) [ICI 182,780, 7α,17β-[9[(4,4,5,5,5-pentafluoropentyl)sulfinyl]nonyl]estra-1,3,5(10)-triene-3,17-diol]
- antagonistic activity on zfERα (in words) (zfERα [3]): full antagonistic activity
- IC50 (zfERα [3]; read-out: zfERα IC50, together with 1 nM E2, 28 °C): 3 nM
- antagonistic activity on zfERβ1 (in words) (zfERβ1 [4]): full antagonistic activity
- antagonistic activity on zfERβ2 (in words) (zfERβ2 [5]): full antagonistic activity
- agonistic activity on zfERβ1 (in words) (zfERβ1 [1]): No agonistic activity
- agonistic activity on zfERβ2 (in words) (zfERβ2 [2]): No agonistic activity
- effect on E2-induced fluorescence in liver (5×ERE:GFP reporter; ref Gorelik and Halpern., 2011): reduce the E2-induced fluorescence in liver
- agonistic activity on zfERα (in words) (zfERα [6]; HELN-zfERα): No agonistic activity

SMILES: O=C1C[C@@H](c2ccc(O)cc2)Oc2cc(O)ccc21 [Liquiritigenin, liquiritigenin]
- agonistic activity on zfERβ1 (in words) (zfERβ1 [1]): did not activate zfERβ1 at all
- EC50 (zfERα [6]; read-out: zfERα EC50, HELN-zfERα, 28 °C): 563 nM

SMILES: Cc1c(-c2ccc(O)cc2)nn(-c2ccc(O)cc2)c1-c1ccc(OCCN2CCCCC2)cc1.Cl.Cl [MPP, 1,3-bis (4-hydroxyphenyl)-4-methyl-5-[4-(2-piperidinylethoxy)phenol]-1H-pyrazole dihydrochloride]
- antagonistic activity on zfERβ1 (in words) (zfERβ1 [4]): slight zfERβ1 selectivity

- antagonistic activity on zfERα (in words) (zfERα [3]): full antagonistic activity
- antagonistic activity on zfERβ1 (in words) (zfERβ1 [4]): partially antagonize
- antagonistic activity on zfERβ2 (in words) (zfERβ2 [5]): partially antagonize
SMILES: CCCc1c(-c2ccc(O)cc2)nn(-c2ccc(O)cc2)c1-c1ccc(O)cc1 [PPT, 4,4′,4″-(4-Propyl-[^1H]-pyrazole-1,3,5-triyl)trisphenol]
- agonistic activity on zfERβ1 (in words) (zfERβ1 [1]): partially activated; also recorded: slightly activated
- agonistic activity on zfERβ2 (in words) (zfERβ2 [2]): partially activated; also recorded: slightly activated
- agonistic activity on hERβ (in words) (hERβ): unable to activate hERβ
- tissue of GFP expression (5×ERE:GFP reporter): GFP labeling of only the larval liver
- agonistic activity on zfERα (in words) (zfERα [6]; HELN-zfERα): did not activate zfERα at all; also recorded: devoid of agonistic activity

SMILES: C[C@H]1CCCC(=O)CCCCCc2cc(O)cc(O)c2C(=O)O1 [zearalanone]
- potency profile among zfER subtypes (zfERα [6]): zfERα potency > zfERβ1 potency ≥ β2 potency

SMILES: C[C@H]1CCCC(=O)CCC/C=C/c2cc(O)cc(O)c2C(=O)O1 [zearalenone]
- potency profile among zfER subtypes (zfERα [6]): zfERα potency > zfERβ1 potency ≥ β2 potency

SMILES: C[C@H]1CCC[C@H](O)CCCCCc2cc(O)cc(O)c2C(=O)O1 [α-Zearalanol, α-zearalanol]
- EC50 (zfERβ1 [1]; HELN-zfERβ1, 28 °C): 0.71 nM

SMILES: C[C@H]1CCC[C@H](O)CCC/C=C/c2cc(O)cc(O)c2C(=O)O1 [α-Zearalenol, α-zearalenol]
- potency profile among zfER subtypes (zfERα [6]): zfERα potency > zfERβ1 potency ≥ β2 potency

SMILES: C[C@H]1CCC[C@@H](O)CCCCCc2cc(O)cc(O)c2C(=O)O1 [β-zearalanol]
- potency profile among zfER subtypes (zfERα [6]): zfERα potency > zfERβ1 potency ≥ β2 potency

SMILES: C[C@H]1CCC[C@@H](O)CCC/C=C/c2cc(O)cc(O)c2C(=O)O1 [β-zearalenol]
- potency profile among zfER subtypes (zfERα [6]): zfERα potency > zfERβ1 potency ≥ β2 potency
